{"source": "the supplement of paper PMC10307832", "experiment_in_all_cases": "relative viability (nuclei count vs DMSO), 5 days (fraction); higher = more cells survive", "key": {"[1]": {"compound": "CC(=O)Nc1cccc(-n2c(=O)n(C3CC3)c(=O)c3c(Nc4ccc(I)cc4F)n(C)c(=O)c(C)c32)c1 [Trametinib] + Cc1nc(NC(=O)N2CCC[C@H]2C(N)=O)sc1-c1ccnc(C(C)(C)C(F)(F)F)c1 [Alpelisib] (partner 2 µM)", "summary_of_the_method": "(§1)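 The day after seeding in 1536-well plates, lung cancer cell lines were treated by pin tool with a single drug, or with a fixed anchor-drug dose together with five library-drug doses (not always all listed) in √10 steps. After 5 days, a combined fix-and-stain solution (final 0.05% Triton X-100, 1% formaldehyde, 1 ug/ml Hoechst) was added. Nuclei counted on 4× images gave relative viability as treated counts over vehicle counts, reported as the median of duplicate plates.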"}, "[2]": {"compound": "CN1C=C(C2=CC=CC=C21)/C=C\\3/C4=C(C=CC=N4)NC3=O + CC1(C)CCC(c2ccc(Cl)cc2)=C(CN2CCN(c3ccc(C(=O)NS(=O)(=O)c4ccc(N[C@H](CCN5CCOCC5)CSc5ccccc5)c(S(=O)(=O)C(F)(F)F)c4)cc3)CC2)C1 [Navitoclax] (partner 0.5 µM)", "summary_of_the_method": "as §1"}, "[3]": {"compound": "CC(=O)Nc1cccc(-n2c(=O)n(C3CC3)c(=O)c3c(Nc4ccc(I)cc4F)n(C)c(=O)c(C)c32)c1 [Trametinib] + CC(C)C[C@H](NC(=O)[C@H](Cc1ccccc1)NC(=O)c1cnccn1)B(O)O [Bortezomib] (partner 0.002 µM)", "summary_of_the_method": "as §1"}, "[4]": {"compound": "CN1C=C(C2=CC=CC=C21)/C=C\\3/C4=C(C=CC=N4)NC3=O + CCNC(=O)c1noc(-c2cc(C(C)C)c(O)cc2O)c1-c1ccc(CN2CCOCC2)cc1 [Luminespib] (partner 0.01 µM)", "summary_of_the_method": "as §1"}}}
{"cell line": "UMC-11", "values": [{"measurement": "relative viability", "setting": "[1]; first compound 0.0025 µM", "result": 0.904}, {"measurement": "relative viability", "setting": "[1]; first compound 0.007906 µM", "result": 0.981}, {"measurement": "relative viability", "setting": "[1]; first compound 0.025 µM", "result": 0.956}, {"measurement": "relative viability", "setting": "[1]; first compound 0.07906 µM", "result": 0.876}, {"measurement": "relative viability", "setting": "[1]; first compound 0.25 µM", "result": 0.945}, {"measurement": "relative viability", "setting": "[2]; first compound 0.02 µM", "result": 0.24}, {"measurement": "relative viability", "setting": "[2]; first compound 0.06325 µM", "result": 0.318}, {"measurement": "relative viability", "setting": "[2]; first compound 0.2 µM", "result": 0.288}, {"measurement": "relative viability", "setting": "[2]; first compound 0.6325 µM", "result": 0.362}, {"measurement": "relative viability", "setting": "[2]; first compound 2 µM", "result": 0.391}, {"measurement": "relative viability", "setting": "[3]; first compound 0.0025 µM", "result": 0.777}, {"measurement": "relative viability", "setting": "[3]; first compound 0.007906 µM", "result": 0.836}, {"measurement": "relative viability", "setting": "[3]; first compound 0.025 µM", "result": 0.254}, {"measurement": "relative viability", "setting": "[3]; first compound 0.07906 µM", "result": 0.837}, {"measurement": "relative viability", "setting": "[3]; first compound 0.25 µM", "result": 0.663}, {"measurement": "relative viability", "setting": "[4]; first compound 0.02 µM", "result": 0.764}, {"measurement": "relative viability", "setting": "[4]; first compound 0.06325 µM", "result": 0.943}, {"measurement": "relative viability", "setting": "[4]; first compound 0.2 µM", "result": 1}, {"measurement": "relative viability", "setting": "[4]; first compound 0.6325 µM", "result": 1.25}, {"measurement": "relative viability", "setting": "[4]; first compound 2 µM", "result": 1.18}]}
